Experimental findings from patent publication US10494384B2, “Urea peptoid boric acid compound, pharmaceutical composition thereof, preparation method therefor, and uses thereof” (Peking University, priority 2015, dated 2019) are described below.

Usually IC50 stands for the concentration needed to halve the response being measured.

SMILES strings stand for the structures.

The subject of this assay is MGC803 stomach cancer cells. In words: anti-tumor activity in vitro (IC50), MTT. The format is cell-based. The note with it: Homo sapiens, MGC-803; MGC80-3, MTT, 72 h, value ± spread; read-out: IC50 (μM), growth of stomach cancer cells (MGC80-3). As for the experimental part: Cancer cells were cultured in vitro. When cell growth reached logarithmic phase, the cells were collected and centrifuged at 1000 rpm for 5 min, before the supernate was removed and the cells were suspended in a moderate amount of medium, and then the concentration of cell was adjusted to 3.5×10^4/mL. The cell suspension was added into a 96-well plate with 100 μL per well and cultured in a cell incubator (37° C., 5% CO2) for 24 h. Then test drugs of different end concentrations were added, and the negative control group was added DMSO (end concentration was 0.5%), while each group afforded three repetitive holes. After cultivation for another 72 h in the cell incubator, a solution containing 5 mg/ml MTT (20 μL) was added into each well and the 96-well plate was placed at 37° C. for 3 h. To each well was added 150 μL DMSO, after oscillation in a shaking table for 5 min, the optical density (OD) values at 492 nm/620 nm were measured. IC50 values were calculated by Prism Graphpad statistical software.
In the case of `CC(C)C[C@H](NC(=O)[C@H](Cc1ccc2ccccc2c1)NC(=O)N1CCc2ccccc2C1)B(O)O` [Example 43, N-L-naphthylalanyl-L-leucine borate-N′-1,2,3,4-tetrahydroisoquinoline-urea], the IC50 stood at 0.0173 ± 0.003 µM.
On to `CC[C@H](C)[C@H](NC(=O)N1CCc2ccccc2C1)C(=O)N[C@@H](CC(C)C)B(O)O` [Example 44, N-L-isoleucyl-L-leucine borate-N′-1,2,3,4-tetrahydroisoquinoline-urea], for which the IC50 stood at 0.139 ± 0.004 µM.
For `CC(C)C[C@H](NC(=O)[C@H](Cc1c[nH]c2ccccc12)NC(=O)N1CCc2ccccc2C1)B(O)O` [Example 45, N-L-tryptophanyl-L-leucine borate-N′-1,2,3,4-tetrahydroisoquinoline-urea] the value was 0.0092 ± 0.001 µM; for `CC(C)C[C@H](NC(=O)[C@H](Cc1ccccc1)NC(=O)N1CCc2ccc([N+](=O)[O-])cc2C1)B(O)O` [Example 46, N-L-phenylalanyl-L-leucine borate-N′-7-nitro-1,2,3,4-tetrahydroisoquinoline-urea], 0.0046 µM; for `CC(C)C[C@H](NC(=O)[C@H](CCc1ccccc1)NC(=O)N1CCc2ccccc2C1)B(O)O` [Example 47, N-L-homophenylalanyl-L-leucine borate-N′-1,2,3,4-tetrahydroisoquinoline-urea], 0.0244 ± 0.005 µM.
`CC(C)C[C@H](NC(=O)[C@H](Cc1ccc([N+](=O)[O-])cc1)NC(=O)N1CCc2ccccc2C1)B(O)O` [Example 48, N-L-4-nitro-phenylalanyl-L-leucine borate-N′-1,2,3,4-tetrahydroisoquinoline-urea]: the IC50 was determined as 0.111 ± 0.009 µM.
For `CC(C)C[C@H](NC(=O)[C@H](CCC(N)=O)NC(=O)N1CCc2ccccc2C1)B(O)O` [Example 49] the value was 0.0401 ± 0.005 µM.
On to `COc1cc2c(cc1OC)CN(C(=O)N[C@@H](Cc1ccccc1)C(=O)N[C@@H](CC(C)C)B(O)O)CC2` [Example 50, N-L-phenylalanyl-L-leucine borate-N′-6,7-dimethoxy-1,2,3,4-tetrahydroisoquinoline-urea], for which the IC50 was 0.0172 ± 0.002 µM.
For the molecule `COc1ccc2c(c1)CN(C(=O)N[C@@H](Cc1ccccc1)C(=O)N[C@@H](CC(C)C)B(O)O)CC2` [Example 51, N-L-phenylalanyl-L-leucine borate-N′-7-methoxy-1,2,3,4-tetrahydroisoquinoline-urea], the IC50 is more than 100 µM.
In the case of `COc1ccc2c(c1)CCN(C(=O)N[C@@H](Cc1ccccc1)C(=O)N[C@@H](CC(C)C)B(O)O)C2` [Example 52, N-L-phenylalanyl-L-leucine borate-N′-6-methoxy-1,2,3,4-tetrahydroisoquinoline-urea], the IC50 was found to be 0.85 ± 0.106 µM.
Consider `COc1cccc2c1CN(C(=O)N[C@@H](Cc1ccccc1)C(=O)N[C@@H](CC(C)C)B(O)O)CC2` [Example 53, N-L-phenylalanyl-L-leucine borate-N′-8-methoxy-1,2,3,4-tetrahydroisoquinoline-urea], for which the IC50 came to 2.24 ± 0.503 µM.
Regarding `COc1cccc2c1CCN(C(=O)N[C@@H](Cc1ccccc1)C(=O)N[C@@H](CC(C)C)B(O)O)C2` [Example 54, N-L-phenylalanyl-L-leucine borate-N′-5-methoxy-1,2,3,4-tetrahydroisoquinoline-urea], the IC50 worked out at 0.361 ± 0.088 µM.
Take `CC(C)C[C@H](NC(=O)[C@H](Cc1ccccc1)NC(=O)N1CCc2ccsc2C1)B(O)O` [Example 55, N-L-phenylalanyl-L-leucine borate-N′-4,5,6,7-tetrahydrothieno[2,3-c]pyridine-urea]: the IC50 stood at 0.006 µM.
